The subject of data set [1] is STHdh 111/111 striatal cells. The experiment in a line: Cell viability (CellTiter Glo) of heat shocked STHdh 111/111 striatal cells. In kind it is cell-based, mouse. Conditions: STHdh 111/111, 10 µM, 48 hours treatment; for viability at 10 µM: Mus musculus, read-out: Cell Viability striatal cells 3h heat shocked. A general note: In ATP-based viability assays light output follows the ATP content of the culture.
Method: Cell culture - ST HDH Q111/111 (CH00095, Coriell Institute) striatal derived cell line were grown at 33° C. in DMEM (Sigma-Aldrich), supplemented with 10% fetal bovine serum (FBS), 1% Penicillin-Streptomycin (ThermoFisher Scientific), and 0.4 mg/ml G418 (Geneticin; Invitrogen). ST HDH Q111/111 are mouse striatal cells with polyQ length of 1111.
Pre-Treatment of striatal cell line - First the medium was removed and new DMEM (DMEM, high glucose, HEPES, no phenol red) medium, supplemented with 10% fetal bovine serum (FBS), 1% Penicillin-Streptomycin, containing 10 µM compound was added. The cells were incubated at 33° C. for 24 hours.
Heat shock - Cells were heat shocked for 3 hours at 41° C.
Treatment - Medium was removed and new DMEM (DMEM, high glucose, HEPES, no phenol red) medium, supplemented with 1% fetal bovine serum (FBS), 1% Penicillin-Streptomycin, containing 10 µM compound was added. The cells were incubated at 33° C. for 48 hours.
Cell Viability - Cell viability was measured according to manufacturer recommendations with CellTiter Glo (Promega). 96-well plates for used either for cell viability determination or cell staining.

In the next data set the test system is STHdh 7/7 striatal cells. The experiment in a line: Cell viability of heat shocked STHdh 7/7 striatal cells. The settings on record: 48 hours treatment; for viability at 10 µM: Mus musculus, read-out: Cell Viability striatal cells 3h heat shocked; for Cell Viability striatal cells 3h heat shocked: 10 µM. In kind it is cell-based, mouse. On the procedure: RESULTS - Table 7b summarizes the effect of the compounds on cell viability. STHdh 7/7 were heat shocked for 3 hours and treated for 48 hours with small molecule compounds. Table 2 lists the cell viability in striatal cells after 48 hours.
Effect of Compound 22 on Cell Viability of Wildtype Striatal Neurons - STHdh 7/7 cells are striatal cells that express wildtype huntingtin. These cells were cultured in the same conditions as described above for STHdh 111/111. The neurons were first heat shocked for 3 hours at 41° C. as described above. After 48 hours of treatment with the small molecule Compounds, cell viability was determined using the method described above. The “buffer” control is represents cells treated with a buffer only, without any compounds added. Some of the compounds show higher cell viability in comparison to control heat shocked STHdh 7/7 neurons with buffer and no treatment (FIG. 9).

A further data set relates to Mur46. Conditions: 0.1 mM compound concentration.
The next data set concerns the target mHTT (Mus musculus, UniProt P42859, DEL28-30/G47A/INS49LLPQPQPP/INS60VA/L56P/P40L). The experiment in a line: Diffuse mHTT levels in heat shocked STHdh 111/111 striatal cells by immunocytochemistry. The settings on record: for remaining activity at 10 µM: 48 h.
Data set [2] in a line: Modified PAMPA with brain lipids, blood brain barrier permeation by LC-MS-MS. In kind it is in vitro ADME. The method, then: Compounds from the Biacore screening were analyzed in a modified Parallel Artificial Permeation Assay (PAMPA) assay for their ability to permeate the blood brain barrier. The filter material of a 96-well microplate is impregnated with brain lipids (Di, L. et al., Eur. J. Med. Chem. 2003 Mar;38(3):223-232). The test compounds were added to the donor compartment. […] Based on these permeation data, the drugs were classified as blood brain barrier permeating (BBB+) with a flux rate >50% or non-permeating (BBB-) with a flux rate <50%.
In general terms: PAMPA measures passive passage across an artificial lipid membrane.

Data set [3] concerns Htt14A2.6 PC12 cells (mHttex1-GFP). The experiment in a line: mHTT aggregation by filter retardation assay in Htt14A2.6 PC12 cells. In kind it is cell-based. Conditions: 24 hour treatment, different concentrations. The method, then:
Compounds from the Biacore screening were selected for measurement of aggregation in a cell model Htt14A2.6 PC12. Htt14A2.6 PC12 cells express a GFP- tagged 97Q mHtt exon 1 fusion protein (mHttex1-GFP) in the presence of ponasterone A. Htt14A2.6 PC12 cells were grown in medium containing 5 µM ponasterone A for 20 hours prior to treatment with the compounds. Htt14A2.6 PC12 cells were plated at 50~60% confluency. Compound 22 was tested at a final concentration of 80 nM, 400 nM and 10 µM in cell culture medium for 24 hours. Htt14A2.6 PC12 cells were harvested, rinsed, homogenized in cold phosphate-buffered saline containing protease inhibitor cocktail, and centrifuged at 16000 g for 30 min at 4° C. twice. About 25 µg total protein of each sample was resolved in 8% SDS PAGE, transferred onto PVDF membrane, blotted with an anti-GFP antibody, and visualized by ECL detection. mHTT aggregates were quantified from the cell lysates by filter retardation assay (Wanker, E.E., et al., Methods Enzymol (1999); 309: 375-386).

A further data set concerns zebrafish larvae. The experiment in a line: Zebrafish MPP+ motility model, photomotor assay. In kind it is in vivo. Conditions: MPP+ alone, 500 µM. The method, then: MPP+ selectively targets dopaminergic neurons; the putative mechanism is induction of K+ efflux, cell membrane hyperpolarization and inhibition of neuronal firing. This ultimately leads to an inhibition of complex I, a decrease in ATP production and promotion of the generation of reactive oxygen species upon accumulation in the mitochondria (3). The observed phenotype following exposure to 500 µM from 24 hours post fertilization (hpf) to 120 hpf is characterized by a decrease in movement during lights-on phases of a photomotor assay. In unpublished data below, representative locomotor perturbations of the distance moved and movement frequency is shown.
Six groups were included in each experiment. Immediately after spawning, 40 embryos per group were allocated to a 24-well plate and system water (solvent) was added to all wells. For assessment of neuroprotective potential, Compound 4 was added for a final concentration of 1, 10 and 20 µM (column 4-6). From the following day at 24 hpf, Compound 4 was co-incubated with 500 µM MPP+. MPP+ was prepared immediately prior to incubation and solutions were changed daily. At 120 hpf, drug treatment and MPP+ exposure was ceased and a 3X wash was performed with system water. Larvae were then relocated to 96-well plates for behavioral recording and placed in a separate recording room for 24-hour acclimation. Prior to behavioral recording, wells were fully replenished system water.
Naive group was exposed to solvent only. Vehicle group was exposed to solvent and vehicle corresponding to the vehicle of 20 µM drug solution (0.02% DMSO). MPP+ positive control was exposed to solvent and 500 µM MPP+. All compound groups were treated with the respective vehicle and respective concentration of compound 4.
Behavioral data was recorded from 1 p.m. on 6 dpf until shortly after wakening on 7 dpf. The recording consisted of a photomotor assay in which lights switch off and on in 30-minute intervals between 1 p.m. and 6 p.m., producing a consistent photomotor response. […] Upon lights being turned on again, the larvae cease movement followed by a return to baseline. This cycle is repeated five times. Following the last lights-off phase, constant illumination is presented until lights turn off at 10 p.m. for the night. Lights turn on again at 8 a.m. the following day.
Average movement frequency was measured during 30-minute lights-on phases of photomotor assay. Movement bouts were defined as initiated when velocity exceeded a threshold of 2 mm/s and ceased when velocity fell below 1 mm/s.
Distance moved (mm) was defined as the average distance moved during 30-minute lights-on phases of photomotor assay.
Data was obtained using EthoVision XT (Version 11.5.2016, Noldus) and exported to Microsoft Excel for data analysis. […]

In another data set the test system is Exon1 Q46. The experiment in a line: Circular dichroism of Exon1 Q46, predominantly α-helical state. Conditions: Exon1 Q46; conc. compound 1.62 µM. In kind it is biochemical. On the procedure: Protein samples were diluted with buffer to 7.5 µM prior to Circular Dichroism (CD) measurements. Measurements were conducted at room temperature.
Four spectra at each measurement were taken every 1 nm from 200 to 260 nm, scanning at 50 nm/min with an averaging time of 1 sec. Spectra were obtained from samples in 20 mM phosphate, pH 7.4. Ten scans were averaged for each sample spectrum
Single-wavelength readings at 222 nm were obtained. After subtraction of the Trx contribution, the α-helical content of Httex1 was estimated from its mean residue ellipticity (MREHttex1) at 222 nm. This calculation was conducted as described by Bravo-Arredondo (Bravo-Arredondo, J.M. et al., J Biol Chem. 2018 Dec 21;293(51):19613-19623).
MRE Exon-1 […] and Q46 (Mean Residue Ellipticity) was measured every 1 sec for 300 sec; the 301 readings for each sample were averaged and MRE Trx subtracted. The number of amino acids in each sample to experience a change in helicity was estimated using a previously developed helix-coil transition model, which gave the change in fraction of helicity (ΔfHelix) by the following equation: […]
where MRE Exon1 Q26 or Q46 (MREHttex1 in the formula) describes the helix-coil transition, obtained from the difference between MRE Eon1 Q26 or Q46 at 222 nm of the fusion protein at the given temperature (in our case 37° C.) and the product of MRE Trx at 222 nm at the same temperature and the fraction of residues comprised by Trx in that particular construct, and
In order to calculate an equilibrium of the two states model, percent α-helicity was calculated using the relation of MREHttex1 = 0 and -34700 (deg cm^2 dmol^-1) for 0% and 100% helicity, respectively.
The CD measurements protocol for Compound 101 was the same as outlined above except that from 206 nm - 210 nm and 220 nm - 224 nm, the step size was 0.2 nm, and the bandwidth was 1 nm.
A general note: Circular dichroism is widely used to follow secondary structure.

Where [4] appears, read: read-out: mHTT after treatment, 10 µM, 3 h heat shock, 48 hours treatment, in comparison to untreated STHdh 111/111.

SMILES strings stand for the structures. Entries after “also recorded” stand apart in the source; their conditions may differ. Like-named read-outs stand apart in the source and are kept apart here.

Chain of mHTT (P42859 with tags, fused parts or gaps DEL28-30/P40L/G47A/INS49LLPQPQPP/L56P/INS60VA): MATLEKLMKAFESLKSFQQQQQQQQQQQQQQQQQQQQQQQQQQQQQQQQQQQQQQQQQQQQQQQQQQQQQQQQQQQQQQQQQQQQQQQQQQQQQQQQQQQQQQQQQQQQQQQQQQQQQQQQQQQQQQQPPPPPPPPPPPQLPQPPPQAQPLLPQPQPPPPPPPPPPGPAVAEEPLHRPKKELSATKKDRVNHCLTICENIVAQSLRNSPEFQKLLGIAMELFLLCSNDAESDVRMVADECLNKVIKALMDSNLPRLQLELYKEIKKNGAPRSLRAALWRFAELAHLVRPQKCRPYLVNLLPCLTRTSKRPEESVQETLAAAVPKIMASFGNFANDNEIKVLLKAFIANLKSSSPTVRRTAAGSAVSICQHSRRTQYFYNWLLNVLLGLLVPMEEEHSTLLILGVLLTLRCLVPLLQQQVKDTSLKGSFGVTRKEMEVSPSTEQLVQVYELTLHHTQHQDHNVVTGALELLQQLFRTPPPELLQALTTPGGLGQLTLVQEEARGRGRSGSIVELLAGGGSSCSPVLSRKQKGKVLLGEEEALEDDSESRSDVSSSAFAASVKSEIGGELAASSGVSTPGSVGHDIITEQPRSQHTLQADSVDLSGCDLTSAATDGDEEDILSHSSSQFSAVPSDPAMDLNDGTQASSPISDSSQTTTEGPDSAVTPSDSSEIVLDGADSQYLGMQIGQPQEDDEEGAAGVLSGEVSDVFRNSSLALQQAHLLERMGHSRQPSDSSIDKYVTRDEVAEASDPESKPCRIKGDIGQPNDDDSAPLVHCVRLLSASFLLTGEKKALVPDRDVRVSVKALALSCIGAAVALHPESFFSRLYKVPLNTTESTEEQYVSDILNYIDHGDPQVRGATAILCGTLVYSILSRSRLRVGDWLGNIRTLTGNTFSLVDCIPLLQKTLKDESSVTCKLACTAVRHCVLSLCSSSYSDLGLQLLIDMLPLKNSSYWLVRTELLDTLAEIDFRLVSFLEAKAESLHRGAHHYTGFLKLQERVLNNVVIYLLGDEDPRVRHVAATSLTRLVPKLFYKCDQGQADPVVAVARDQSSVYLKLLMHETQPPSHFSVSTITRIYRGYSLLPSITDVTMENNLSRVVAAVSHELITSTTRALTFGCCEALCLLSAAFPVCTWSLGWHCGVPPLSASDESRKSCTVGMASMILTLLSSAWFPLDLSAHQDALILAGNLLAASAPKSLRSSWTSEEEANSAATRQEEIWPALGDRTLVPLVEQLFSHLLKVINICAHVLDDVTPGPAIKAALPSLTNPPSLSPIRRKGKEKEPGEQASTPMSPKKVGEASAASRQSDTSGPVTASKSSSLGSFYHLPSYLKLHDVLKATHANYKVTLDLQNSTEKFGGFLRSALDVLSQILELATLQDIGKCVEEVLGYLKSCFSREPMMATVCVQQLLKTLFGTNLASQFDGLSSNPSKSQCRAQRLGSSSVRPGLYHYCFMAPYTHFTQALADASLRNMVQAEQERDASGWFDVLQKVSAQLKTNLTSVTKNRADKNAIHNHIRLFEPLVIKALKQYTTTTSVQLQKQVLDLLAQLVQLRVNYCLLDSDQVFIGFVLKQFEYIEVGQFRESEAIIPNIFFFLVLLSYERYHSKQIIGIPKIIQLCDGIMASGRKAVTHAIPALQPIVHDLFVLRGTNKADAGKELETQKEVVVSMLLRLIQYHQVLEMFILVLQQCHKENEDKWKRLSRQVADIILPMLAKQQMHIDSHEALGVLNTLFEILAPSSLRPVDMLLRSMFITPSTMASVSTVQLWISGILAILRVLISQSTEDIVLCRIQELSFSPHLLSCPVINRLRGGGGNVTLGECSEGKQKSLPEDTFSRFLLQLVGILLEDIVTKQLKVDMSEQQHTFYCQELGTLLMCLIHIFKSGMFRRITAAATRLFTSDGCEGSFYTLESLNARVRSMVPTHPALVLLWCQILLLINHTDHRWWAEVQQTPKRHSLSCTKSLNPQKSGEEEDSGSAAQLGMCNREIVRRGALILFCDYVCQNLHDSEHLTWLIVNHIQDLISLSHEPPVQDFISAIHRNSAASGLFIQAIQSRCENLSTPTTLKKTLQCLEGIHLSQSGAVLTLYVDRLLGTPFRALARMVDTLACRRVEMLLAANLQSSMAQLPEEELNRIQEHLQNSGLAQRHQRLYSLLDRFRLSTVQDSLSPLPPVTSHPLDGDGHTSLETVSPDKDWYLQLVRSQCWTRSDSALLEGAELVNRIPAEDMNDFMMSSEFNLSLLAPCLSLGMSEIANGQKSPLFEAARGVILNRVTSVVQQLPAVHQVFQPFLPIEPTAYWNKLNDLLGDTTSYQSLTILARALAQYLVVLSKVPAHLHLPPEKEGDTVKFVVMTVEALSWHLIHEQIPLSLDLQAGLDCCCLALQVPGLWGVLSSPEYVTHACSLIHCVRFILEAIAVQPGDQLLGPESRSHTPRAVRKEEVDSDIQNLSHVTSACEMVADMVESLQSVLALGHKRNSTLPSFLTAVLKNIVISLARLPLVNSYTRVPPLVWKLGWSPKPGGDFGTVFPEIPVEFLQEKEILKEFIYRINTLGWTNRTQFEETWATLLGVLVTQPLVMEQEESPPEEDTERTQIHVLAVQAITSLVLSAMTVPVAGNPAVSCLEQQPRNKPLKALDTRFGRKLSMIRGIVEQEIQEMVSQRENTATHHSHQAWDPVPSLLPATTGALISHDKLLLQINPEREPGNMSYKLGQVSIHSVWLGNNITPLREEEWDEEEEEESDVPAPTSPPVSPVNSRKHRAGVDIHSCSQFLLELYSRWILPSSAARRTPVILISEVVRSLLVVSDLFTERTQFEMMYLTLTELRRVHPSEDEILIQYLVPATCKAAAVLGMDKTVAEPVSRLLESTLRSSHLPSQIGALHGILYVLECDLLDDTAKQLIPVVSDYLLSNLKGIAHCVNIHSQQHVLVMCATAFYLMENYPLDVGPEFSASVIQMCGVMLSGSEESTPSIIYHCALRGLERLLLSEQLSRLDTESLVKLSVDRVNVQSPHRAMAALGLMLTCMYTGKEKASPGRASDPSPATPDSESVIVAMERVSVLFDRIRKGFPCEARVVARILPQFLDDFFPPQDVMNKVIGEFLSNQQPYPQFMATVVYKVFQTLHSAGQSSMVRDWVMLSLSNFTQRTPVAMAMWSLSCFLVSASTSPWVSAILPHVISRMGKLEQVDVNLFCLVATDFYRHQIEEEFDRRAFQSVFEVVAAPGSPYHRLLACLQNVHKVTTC
Method for Mur46: MurTRX, Mur 16 and Mur46 Protein Purification - Proteins were loaded onto IMAC resin (ThermoFisher Scientific HisPur) and eluted in 200 mM imidazole, purified by gel filtration FPLC (HiLoad superdex-200, 26/60; GE Life sciences) and concentrated using 3 kDa cut off Vivaspin 20 PES centrifugal concentrators (Sartorius AG). Proteins were biotinylated using a 1:0.5 molar ratio of EZ-link™ Sulfo-NHS-LC-LC-Biotin (ThermoFisher Scientific) and thoroughly dialysed against PBS prior to Biacore coupling.
A customized biotin capture chip using NeutrAvidin as the capture ligand was created for this assay. To obtain high enough ligand density on the sensor chip surface, NeutrAvidin (Thermoscientific Pierce, Waltham, MA USA) was immobilised on all four sensor chip surfaces to a level of approximately 20,000 RU.
Capture of the Mur ligands to NeutrAvidin - Biotinylated proteins were diluted in HBS EP+ running buffer and captured on the sensor chip surface. Mur46 was coupled to the sensor chip first. After saturating FC3 with Mur46, target response levels for Mur16 and MurTRX were calculated based on their respective molecular weights. […]
Analog Screening-Methods - Analog or derivative compounds from the secondary screen were determined and were used in an analog Biacore SPR screen. […]

One may read the viability as a read-out of living cells in per cent, often relative to untreated cells. For `Cc1[nH]c2ccc(C(=O)NCCN3CCCC3)cc2c1C` [Compound 29, 2,3-Dimethyl-N-(2-(pyrrolidin-1-yl)ethyl)-1H-indole-5-carboxamide], the figures for the viability at 10 µM (in data set [1]; in the data set with STHdh 7/7 striatal cells) were 103% and 131%, respectively.
As to `Cc1[nH]c2ccc(C(=O)N(C)CCN(C)C3CC3)cc2c1C` [Compound 114], in the data set on Mur46, the “Biacore affinity (RU^2)” value came to 20 RU^2.
On to `CC(C)N(CCNC(=O)c1ccc2[nH]ccc2c1)C(C)C` [Compound 72], for which the viability at 10 µM in the data set on STHdh 7/7 striatal cells worked out at 45.7%.
With `Cc1c(C)n(C)c2ccc(C(=O)NCCN3CCC3)cc12` [Compound 44, N-(2-(Azetidin-1-yl)ethyl)-1,2,3-dimethyl-1H-indole-5-carboxamide], the viability at 10 µM in data set [1] is 75%. In addition, on mHTT (setting [4]), the remaining activity at 10 µM is 66%.
As for `Cc1c(C)n(C)c2ccc(C(=O)NCCN(C(C)C)C(C)C)cc12` [Compound 56], the “Cell Viability striatal cells 3h heat shocked” value came out at 27 in data set [1] and 64.1 in the data set on STHdh 7/7 striatal cells. At mHTT (read-out: mHTT after treatment), the remaining activity at 10 µM amounted to 109%.
Regarding `CN1CCN(CCNC(=O)c2ccc3[nH]c4c(c3c2)CCC4)CC1` [Compound 10], the viability at 10 µM in data set [1] stood at 96%. Besides, the remaining activity at 10 µM on mHTT (read-out: mHTT after treatment) was 40%.
Consider `Cc1c(C)n(C)c2ccc(C(=O)NCCN(C(C)C)C(C)C)cc12.Cl` [Compound 59], for which the “Cell Viability striatal cells 3h heat shocked” value in the data set on STHdh 7/7 striatal cells is recorded as 153.6.
With `Cc1[nH]c2ccc(C(=O)NCCN(C)C)cc2c1C` [Compound 7], in data set [2], the Classification entry is reported as “BBB+ (blood brain barrier permeating (BBB+) with a flux rate >50%)” and the recovery is 88.5%. The “reduction of mHTT aggregation (filter retardation)” value in data set [3] is “A reduction of aggregation of Htt14A2.6 PC12 was not observed; also recorded: did not show a reduction of aggregation”. Further, the viability at 10 µM in data set [1] worked out at 96%. Besides, in the data set with Mur46, the “Biacore affinity (RU^2)” value is on record as 122 RU^2. Also, on mHTT (read-out: mHTT after treatment), the remaining activity at 10 µM stood at 45%.
Regarding `O=C(NCCN1CCOCC1)c1ccc2[nH]c3c(c2c1)CCCC3` [Compound 12], in data set [1], the viability at 10 µM worked out at 106%. The remaining activity at 10 µM on mHTT (read-out: mHTT after treatment) came to 40%.
On to `Cc1c(C)n(C)c2ccc(C(=O)NCCN3CCN(C)CC3)cc12` [Compound 45], for which the viability at 10 µM in data set [1] amounted to 81%. At mHTT (setting [4]), the remaining activity at 10 µM is 66%.
As for `Cc1c(C)n(C)c2ccc(C(=O)NCCN3CCOCC3)cc12` [Compound 40], the viability at 10 µM in data set [1] stood at 85%. At mHTT (10 µM, 3 h heat shock, 48 hours treatment, in comparison to untreated STHdh 111/111), this molecule yielded a mHTT after treatment of 62%.
As to `CCc1c(C)[nH]c2ccc(C(=O)NCCN3CCCCC3)cc12` [Compound 18], the viability at 10 µM in data set [1] came out at 103%. Further, the remaining activity at 10 µM on mHTT (read-out: mHTT after treatment) was 44%.
Taken in the same sequence, the figures for `CCN(CC)CCNC(=O)c1ccc2[nH]ccc2c1` [Compound 52] were 59% and 73%.
In the case of `Cc1c(C)n(C)c2ccc(C(=O)NCCN(C(C)C)C(C)C)cc12.Cl` [Compound 39], the “Cell Viability striatal cells 3h heat shocked” value in data set [1] is 117. Further, the remaining activity at 10 µM on mHTT (setting [4]) is 58%.
Consider `CCN(CC)CCNC(=O)c1ccc2[nH]c(C)c(C)c2c1` [Compound 21, N-(2-(Diethylamino)ethyl)-2,3-dimethyl-1H-indole-5-carboxamide], for which the viability at 10 µM in data set [1] was 87%; with STHdh 7/7 striatal cells it was 82.6%.
As to `CCc1[nH]c2ccc(C(=O)NCCN3CCC3)cc2c1C` [Compound 6], the viability at 10 µM in data set [1] amounted to 113%. Further, the remaining activity at 10 µM on mHTT (read-out: mHTT after treatment) came out at 37%.
Regarding `C[n+]1ccc(-c2ccccc2)cc1` [MPP+, reference compound], the “distance moved compared to naive larvae” value in the data set with zebrafish larvae is “moved significantly shorter distances than naive larvae”.
As to `Cc1[nH]c2ccc(C(=O)NC3CCC(N(C)C)CC3)cc2c1C` (stereo not shown) [Compound 101, N-(4-(dimethylamino)cyclohexyl)-2,3-dimethyl-1H-indole-5-carboxamide], the viability at 10 µM in data set [1] was found to be 110%. The “Fraction Helix fH (%)” value in the data set with Exon1 Q46 is given as 19.0%.
Take `CCc1c(C)[nH]c2ccc(C(=O)NCCN(C)C)cc12` [Compound 1]: the viability at 10 µM in data set [1] stood at 111%. The remaining activity at 10 µM on mHTT (read-out: mHTT after treatment) was 30%.
Taken in the same sequence, the figures for `CCN(CC)CCNC(=O)c1ccc2[nH]c3c(c2c1)CCCC3` [Compound 26] were 82% and 49%.
Consider `O=C(NCCN1CCCC1)c1ccc2[nH]c3c(c2c1)CCC3` [Compound 14], for which, in data set [1], the viability at 10 µM was determined as 113%. For the same molecule, the remaining activity at 10 µM at mHTT (read-out: mHTT after treatment) came out at 41%.

For the origin of these results see US20230218573A1, “INDOLE COMPOUNDS FOR THE TREATMENT OF NEURODEGENERATIVE DISEASES” (GALYAN BIO, INC., priority 2020, published 2023).
